Results from ChEMBL document CHEMBL4257522, “Synthesis and preliminary anti-inflammatory and anti-bacterial evaluation of some diflunisal aza-analogs” (Medchemcomm, 2018).
Active and inactive are the calls of the source. The calls are words filed in the database; no cut-off is given here.

Experiments:
Macrophage cell line [1] = test: Induction of TNFalpha production in human PBMC-differentiated macrophages after 24 hrs by ELISA; type: cell-based
Macrophage cell line [2] = test: Induction of IL-1beta production in human PBMC-differentiated macrophages after 24 hrs by ELISA; type: cell-based
Streptococcus pyogenes [3] = test: Toxicity in Streptococcus pyogenes ATCC 14289 up to 32 uM measured after 16 hrs; type: organism-based
Staphylococcus aureus [4] = test: Potentiation of methicillin-induced antibacterial activity against Staphylococcus aureus ATCC 33592 assessed as minimum modulatory concentration up to 32 uM measured after 16 hrs in presence of MIC/4 methicillin; type: functional; settings: ATCC 33592, 16 h, read-out: MEC
Enterococcus faecium [5] = test: Potentiation of tetracycline-induced antibacterial activity against Enterococcus faecium ATCC 700221 assessed as minimum modulatory concentration up to 32 uM measured after 16 hrs in presence of MIC/4 tetracycline; type: functional; settings: ATCC 700221, 16 h, read-out: MEC
Streptococcus pyogenes [6] = test: Potentiation of methicillin-induced antibacterial activity against Streptococcus pyogenes ATCC 14289 assessed as minimum modulatory concentration up to 32 uM measured after 16 hrs in presence of MIC/4 methicillin; type: functional; settings: ATCC 14289, 16 h, read-out: MEC
Macrophage cell line [7] = test: Induction of IL-8 production in human PBMC-differentiated macrophages after 24 hrs by ELISA; type: cell-based
Staphylococcus aureus [8] = test: Potentiation of geneticin-induced antibacterial activity against Staphylococcus aureus ATCC 33592 assessed as minimum modulatory concentration up to 32 uM measured after 16 hrs in presence of MIC/4 geneticin; type: functional; settings: ATCC 33592, 16 h, read-out: MEC
Klebsiella pneumoniae [9] = test: Potentiation of tetracycline-induced antibacterial activity against Klebsiella pneumoniae ATCC 13883 assessed as minimum modulatory concentration up to 32 uM measured after 16 hrs in presence of MIC/4 tetracycline; type: functional; settings: ATCC 13883, 16 h, read-out: MEC
Escherichia coli [10] = test: Potentiation of geneticin-induced antibacterial activity against Escherichia coli ATCC 43894 assessed as minimum modulatory concentration up to 32 uM measured after 16 hrs in presence of MIC/4 geneticin; type: functional; settings: ATCC 43894, 16 h, read-out: MEC
Macrophage cell line [11] = test: Induction of prostaglandin production in human PBMC-differentiated macrophages after 24 hrs by ELISA; type: cell-based
Macrophage cell line [12] = test: Cytotoxicity against human PBMC-differentiated macrophages treated for 24 hrs followed by compound washout and measured after 48 hrs by MTT assay; type: cell-based
Escherichia coli [13] = test: Potentiation of tetracycline-induced antibacterial activity against Escherichia coli ATCC 43894 assessed as minimum modulatory concentration up to 32 uM measured after 16 hrs in presence of MIC/4 tetracycline; type: functional; settings: ATCC 43894, 16 h, read-out: MEC
Staphylococcus aureus [14] = test: Potentiation of ciprofloxacin-induced antibacterial activity against Staphylococcus aureus ATCC 33592 assessed as minimum modulatory concentration up to 32 uM measured after 16 hrs in presence of MIC/4 ciprofloxacin; type: functional; settings: ATCC 33592, 16 h, read-out: MEC
Klebsiella pneumoniae [15] = test: Potentiation of erythromycin-induced antibacterial activity against Klebsiella pneumoniae ATCC 13883 assessed as minimum modulatory concentration up to 32 uM measured after 16 hrs in presence of MIC/4 erythromycin; type: functional; settings: ATCC 13883, 16 h, read-out: MEC
Klebsiella pneumoniae [16] = test: Potentiation of geneticin-induced antibacterial activity against Klebsiella pneumoniae ATCC 13883 assessed as minimum modulatory concentration up to 32 uM measured after 16 hrs in presence of MIC/4 geneticin; type: functional; settings: ATCC 13883, 16 h, read-out: MEC
Staphylococcus aureus [17] = test: Potentiation of tetracycline-induced antibacterial activity against Staphylococcus aureus ATCC 33592 assessed as minimum modulatory concentration up to 32 uM measured after 16 hrs in presence of MIC/4 tetracycline; type: functional; settings: ATCC 33592, 16 h, read-out: MEC
Pseudomonas aeruginosa [18] = test: Potentiation of erythromycin-induced antibacterial activity against Pseudomonas aeruginosa ATCC BAA-2108 assessed as minimum modulatory concentration up to 32 uM measured after 16 hrs in presence of MIC/4 erythromycin; type: functional; settings: ATCC BAA-2108, 16 h, read-out: MEC
Klebsiella pneumoniae [19] = test: Potentiation of methicillin-induced antibacterial activity against Klebsiella pneumoniae ATCC 13883 assessed as minimum modulatory concentration up to 32 uM measured after 16 hrs in presence of MIC/4 methicillin; type: functional; settings: ATCC 13883, 16 h, read-out: MEC
Enterococcus faecium [20] = test: Toxicity in Enterococcus faecium ATCC 700221 up to 32 uM measured after 16 hrs; type: organism-based; settings: in vitro
Staphylococcus aureus [21] = test: Potentiation of erythromycin-induced antibacterial activity against Staphylococcus aureus ATCC 33592 assessed as minimum modulatory concentration up to 32 uM measured after 16 hrs in presence of MIC/4 erythromycin; type: functional; settings: ATCC 33592, 16 h, read-out: MEC
Streptococcus pyogenes [22] = test: Potentiation of erythromycin-induced antibacterial activity against Streptococcus pyogenes ATCC 14289 assessed as minimum modulatory concentration up to 32 uM measured after 16 hrs in presence of MIC/4 erythromycin; type: functional; settings: ATCC 14289, 16 h, read-out: MEC
Enterococcus faecium [23] = test: Potentiation of geneticin-induced antibacterial activity against Enterococcus faecium ATCC 700221 assessed as minimum modulatory concentration up to 32 uM measured after 16 hrs in presence of MIC/4 geneticin; type: functional; settings: ATCC 700221, 16 h, read-out: MEC
Klebsiella pneumoniae [24] = test: Toxicity in Klebsiella pneumoniae ATCC 13883 up to 32 uM measured after 16 hrs; type: organism-based
Pseudomonas aeruginosa [25] = test: Potentiation of geneticin-induced antibacterial activity against Pseudomonas aeruginosa ATCC BAA-2108 assessed as minimum modulatory concentration up to 32 uM measured after 16 hrs in presence of MIC/4 geneticin; type: functional; settings: ATCC BAA-2108, 16 h, read-out: MEC
Enterococcus faecium [26] = test: Potentiation of methicillin-induced antibacterial activity against Enterococcus faecium ATCC 700221 assessed as minimum modulatory concentration up to 32 uM measured after 16 hrs in presence of MIC/4 methicillin; type: functional; settings: ATCC 700221, 16 h, read-out: MEC
Streptococcus pyogenes [27] = test: Potentiation of geneticin-induced antibacterial activity against Streptococcus pyogenes ATCC 14289 assessed as minimum modulatory concentration up to 32 uM measured after 16 hrs in presence of MIC/4 geneticin; type: functional; settings: ATCC 14289, 16 h, read-out: MEC
Staphylococcus aureus [28] = test: Toxicity in Staphylococcus aureus ATCC 33592 up to 32 uM measured after 16 hrs; type: organism-based
Klebsiella pneumoniae [29] = test: Potentiation of ciprofloxacin-induced antibacterial activity against Klebsiella pneumoniae ATCC 13883 assessed as minimum modulatory concentration up to 32 uM measured after 16 hrs in presence of MIC/4 ciprofloxacin; type: functional; settings: ATCC 13883, 16 h, read-out: MEC
Escherichia coli [30] = test: Toxicity in Escherichia coli ATCC 43894 up to 32 uM measured after 16 hrs; type: organism-based
Escherichia coli [31] = test: Potentiation of erythromycin-induced antibacterial activity against Escherichia coli ATCC 43894 assessed as minimum modulatory concentration up to 32 uM measured after 16 hrs in presence of MIC/4 erythromycin; type: functional; settings: ATCC 43894, 16 h, read-out: MEC
Enterococcus faecium [32] = test: Potentiation of erythromycin-induced antibacterial activity against Enterococcus faecium ATCC 700221 assessed as minimum modulatory concentration up to 32 uM measured after 16 hrs in presence of MIC/4 erythromycin; type: functional; settings: ATCC 700221, 16 h, read-out: MEC
Macrophage cell line [33] = test: Antiinflammatory activity in human PBMC-differentiated macrophages assessed as inhibition of LPS-induced prostaglandin production at 0.01 to 10 uM measured after 24 hrs by ELISA; type: functional, cell-based

Compound	Activity (Macrophage cell line [1])	Activity (Macrophage cell line [2])	Activity (Streptococcus pyogenes [3])	minimal effective concentration (Staphylococcus aureus [4]) [µM]	minimal effective concentration (Enterococcus faecium [5]) [µM]	minimal effective concentration (Streptococcus pyogenes [6]) [µM]	Activity (Macrophage cell line [7])	minimal effective concentration (Staphylococcus aureus [8]) [µM]	minimal effective concentration (Klebsiella pneumoniae [9]) [µM]	minimal effective concentration (Escherichia coli [10]) [µM]	Activity (Macrophage cell line [11])	IC50 (Macrophage cell line [12]) [µM]	minimal effective concentration (Escherichia coli [13]) [µM]	minimal effective concentration (Staphylococcus aureus [14]) [µM]	minimal effective concentration (Klebsiella pneumoniae [15]) [µM]	minimal effective concentration (Klebsiella pneumoniae [16]) [µM]	minimal effective concentration (Staphylococcus aureus [17]) [µM]	minimal effective concentration (Pseudomonas aeruginosa [18]) [µM]	minimal effective concentration (Klebsiella pneumoniae [19]) [µM]	Activity (Enterococcus faecium [20])	other results
O=C(O)c1cnc2c(F)cc(F)cc2c1O	Non-Toxic	Non-Toxic	Non-Toxic	0.5	4	1	Non-Toxic	4	> 32	> 32	Non-Toxic	96.5	> 32	16	> 32	> 32	2	4	> 32	Non-Toxic	minimal effective concentration (Staphylococcus aureus [21]): 1 µM; minimal effective concentration (Streptococcus pyogenes [22]): 8 µM; minimal effective concentration (Enterococcus faecium [23]): 4 µM; Activity (Klebsiella pneumoniae [24]): Non-Toxic; minimal effective concentration (Pseudomonas aeruginosa [25]): > 32 µM; minimal effective concentration (Enterococcus faecium [26]): 0.25 µM; minimal effective concentration (Streptococcus pyogenes [27]): 4 µM; Activity (Staphylococcus aureus [28]): Non-Toxic; minimal effective concentration (Klebsiella pneumoniae [29]): > 32 µM; Activity (Escherichia coli [30]): Non-Toxic; minimal effective concentration (Escherichia coli [31]): > 32 µM; minimal effective concentration (Enterococcus faecium [32]): 4 µM
O=C(O)c1cc(O)c(-c2ccccc2)nc1-c1ccccc1	Non-Toxic	Non-Toxic	Non-Toxic	4	2	1	Non-Toxic	8	> 32	> 32	Non-Toxic	92.1	> 32	16	> 32	> 32	8	8	> 32	Non-Toxic	inhibition (Macrophage cell line [33]): inactive; minimal effective concentration (Staphylococcus aureus [21]): 8 µM; minimal effective concentration (Streptococcus pyogenes [22]): 8 µM; minimal effective concentration (Enterococcus faecium [23]): 4 µM; Activity (Klebsiella pneumoniae [24]): Non-Toxic; minimal effective concentration (Pseudomonas aeruginosa [25]): > 32 µM; minimal effective concentration (Enterococcus faecium [26]): 1 µM; minimal effective concentration (Streptococcus pyogenes [27]): 2 µM; Activity (Staphylococcus aureus [28]): Non-Toxic; minimal effective concentration (Klebsiella pneumoniae [29]): > 32 µM; Activity (Escherichia coli [30]): Non-Toxic; minimal effective concentration (Escherichia coli [31]): > 32 µM; minimal effective concentration (Enterococcus faecium [32]): 2 µM
